Reference: ChEMBL document CHEMBL1136936, “Discovery of N-{N-[(3-cyanophenyl)sulfonyl]-4(R)-cyclobutylamino-(L)-prolyl}-4-[(3',5'-dichloroisonicotinoyl) amino]-(L)-phenylalanine (MK-0668), an extremely potent and orally active antagonist of very late antigen-4” (J Med Chem, 2009)

Key:
Integrin alpha-4 [1] = molecular target: T1, Integrin alpha-4 (Homo sapiens, UniProt P13612); experiment: Displacement of [125I]-(S)-2-((2S,4R)-4-(azetidin-1-yl)-1-(3-iodophenylsulfonyl)pyrrolidine-2-carboxamido)-3-(4-(3,5-dichloroisonicotinamido)phenyl)propanoic acid from VLA4 in human Jurkat cells washed with Hepes buffer by competitive binding assay; format: cell-based
T1 sequence (P13612 whole entry): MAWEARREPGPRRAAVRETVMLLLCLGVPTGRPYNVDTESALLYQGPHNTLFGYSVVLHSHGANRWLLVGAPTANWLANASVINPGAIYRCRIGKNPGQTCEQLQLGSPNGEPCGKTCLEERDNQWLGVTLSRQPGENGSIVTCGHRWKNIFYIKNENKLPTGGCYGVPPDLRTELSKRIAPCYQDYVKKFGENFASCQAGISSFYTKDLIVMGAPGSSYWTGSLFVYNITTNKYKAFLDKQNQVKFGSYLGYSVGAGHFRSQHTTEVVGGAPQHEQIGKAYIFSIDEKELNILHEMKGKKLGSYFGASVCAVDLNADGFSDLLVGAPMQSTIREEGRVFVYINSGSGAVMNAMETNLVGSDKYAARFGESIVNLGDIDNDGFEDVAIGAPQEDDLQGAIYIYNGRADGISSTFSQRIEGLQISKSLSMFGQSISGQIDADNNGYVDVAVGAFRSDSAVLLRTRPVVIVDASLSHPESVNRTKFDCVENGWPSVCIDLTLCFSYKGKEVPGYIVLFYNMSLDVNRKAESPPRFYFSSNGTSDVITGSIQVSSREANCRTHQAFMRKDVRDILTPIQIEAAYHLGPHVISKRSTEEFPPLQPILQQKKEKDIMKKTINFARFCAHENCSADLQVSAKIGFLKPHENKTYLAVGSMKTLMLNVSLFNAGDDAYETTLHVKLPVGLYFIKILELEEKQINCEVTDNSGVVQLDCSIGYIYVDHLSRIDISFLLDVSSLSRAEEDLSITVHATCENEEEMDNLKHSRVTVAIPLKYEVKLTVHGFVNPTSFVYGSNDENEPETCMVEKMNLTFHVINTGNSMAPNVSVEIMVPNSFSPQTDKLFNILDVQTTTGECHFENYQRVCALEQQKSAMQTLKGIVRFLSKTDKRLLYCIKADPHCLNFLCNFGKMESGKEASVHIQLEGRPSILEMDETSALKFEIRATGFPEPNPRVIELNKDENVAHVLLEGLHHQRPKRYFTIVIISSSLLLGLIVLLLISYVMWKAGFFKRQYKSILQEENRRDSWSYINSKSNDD

[2] = molecular target: Integrin alpha-4 (Homo sapiens) (UniProt P13612); experiment: Binding affinity to human VLA4 at 37 degC after 3 hrs; design: concentration or dose not given beside the values
Integrin alpha-4 [3] = molecular target: T1, Integrin alpha-4; experiment: Displacement of [125I]-(S)-2-((2S,4R)-4-(azetidin-1-yl)-1-(3-iodophenylsulfonyl)pyrrolidine-2-carboxamido)-3-(4-(3,5-dichloroisonicotinamido)phenyl)propanoic acid from VLA4 in human whole blood by competitive binding assay; format: tissue-based
[4] = molecular target: Integrin alpha-4 (Homo sapiens) (UniProt P13612); experiment: Binding affinity to human VLA4 at 37 degC after 1 hr
Liver microsomes [5] = experiment: Metabolic stability in human liver microsomes after 1 hr; format: ADME, Microsome
[6] = molecular target: Integrin alpha-4 (Homo sapiens) (UniProt P13612); experiment: Inhibition of human VLA4
Rattus norvegicus [7] = experiment: Tmin in rat at 5 mg/kg, po; format: ADME, organism-based; design: dose 5 mg/kg, route oral; details: in vivo
[8] = Half life in dog at 5 mg/kg, po; format: ADME, organism-based, Canis lupus familiaris; design: dose 5 mg/kg, route oral; details: in vivo
Canis lupus familiaris = species on record: Canis lupus familiaris; experiment: Inhibition of dog VLA4
Liver microsomes [9] = experiment: Metabolic stability in rat liver microsomes after 1 hr; format: ADME, Microsome
Rhesus monkey [10] = experiment: Ex vivo receptor occupancy at VLA4 in rhesus monkey at 5 mg/kg, po after 8 hrs by [125I]- -(S)-2-((2S,4R)-4-(azetidin-1-yl)-1-(3-iodophenylsulfonyl)pyrrolidine-2-carboxamido)-3-(4-(3,5-dichloroisonicotinamido)phenyl)propanoic acid competitive binding assay; format: functional, Macaca mulatta
Rattus norvegicus [11] = experiment: Ex vivo receptor occupancy at VLA4 in rat at 5 mg/kg, po after 12 hrs by [125I]- -(S)-2-((2S,4R)-4-(azetidin-1-yl)-1-(3-iodophenylsulfonyl)pyrrolidine-2-carboxamido)-3-(4-(3,5-dichloroisonicotinamido)phenyl)propanoic acid competitive binding assay; format: functional
[12] = Half life in rat at 5 mg/kg, po; format: ADME, organism-based; design: dose 5 mg/kg, route oral; details: in vivo
Rhesus monkey [13] = experiment: Tmin in rhesus monkey at 5 mg/kg, po; format: ADME, organism-based, Macaca mulatta; design: dose 5 mg/kg, route oral; details: in vivo
[14] = Plasma Clearance in dog at 5 mg/kg, po; format: ADME, organism-based, Canis lupus familiaris; design: dose 5 mg/kg, route oral
[15] = Plasma Clearance in rat at 5 mg/kg, po; format: ADME, organism-based; design: dose 5 mg/kg, route oral
[16] = Plasma Clearance in rhesus monkey at 5 mg/kg, po; format: ADME, organism-based, Macaca mulatta; design: dose 5 mg/kg, route oral
Canis familiaris [17] = experiment: Ex vivo receptor occupancy at VLA4 in dog at 5 mg/kg, po after 12 hrs by [125I]- -(S)-2-((2S,4R)-4-(azetidin-1-yl)-1-(3-iodophenylsulfonyl)pyrrolidine-2-carboxamido)-3-(4-(3,5-dichloroisonicotinamido)phenyl)propanoic acid competitive binding assay; format: functional, Canis lupus familiaris
[18] = Half life in rhesus monkey at 5 mg/kg, po; format: ADME, organism-based, Macaca mulatta; design: dose 5 mg/kg, route oral; details: in vivo
Canis familiaris [19] = experiment: Tmin in dog at 5 mg/kg, po; format: ADME, organism-based, Canis lupus familiaris; design: dose 5 mg/kg, route oral; details: in vivo
Rattus norvegicus [20] = species on record: Rattus norvegicus; experiment: Inhibition of rat VLA4
Macaca mulatta = species on record: Macaca mulatta; experiment: Inhibition of rhesus monkey VLA4
Cytochrome P450 3A4 = Cytochrome P450 3A4 (Homo sapiens, UniProt P08684); experiment: Inhibition of human CYP3A4; format: ADME
Sequence of Cytochrome P450 3A4 (P08684 whole entry): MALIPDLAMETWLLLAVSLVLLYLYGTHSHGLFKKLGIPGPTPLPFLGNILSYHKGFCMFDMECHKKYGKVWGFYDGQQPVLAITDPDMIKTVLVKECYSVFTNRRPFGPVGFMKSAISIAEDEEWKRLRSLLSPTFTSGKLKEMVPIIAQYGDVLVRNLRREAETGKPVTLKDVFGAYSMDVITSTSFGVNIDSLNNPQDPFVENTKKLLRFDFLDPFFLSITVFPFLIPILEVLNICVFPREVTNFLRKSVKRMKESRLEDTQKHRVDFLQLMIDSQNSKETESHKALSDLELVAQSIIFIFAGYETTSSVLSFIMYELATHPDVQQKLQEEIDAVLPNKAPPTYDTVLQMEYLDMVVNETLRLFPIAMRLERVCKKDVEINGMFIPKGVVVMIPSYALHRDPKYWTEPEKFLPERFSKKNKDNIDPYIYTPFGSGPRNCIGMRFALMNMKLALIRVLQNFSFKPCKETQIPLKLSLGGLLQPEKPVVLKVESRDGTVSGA

Rattus norvegicus [21] = experiment: Ex vivo receptor occupancy at VLA4 in rat at 1 mg/kg, po after 8 hrs by [125I]- -(S)-2-((2S,4R)-4-(azetidin-1-yl)-1-(3-iodophenylsulfonyl)pyrrolidine-2-carboxamido)-3-(4-(3,5-dichloroisonicotinamido)phenyl)propanoic acid competitive binding assay; format: functional
Rhesus monkey [22] = experiment: Ex vivo receptor occupancy at VLA4 in rhesus monkey at 0.75 mg/kg, iv after 8 hrs by [125I]- -(S)-2-((2S,4R)-4-(azetidin-1-yl)-1-(3-iodophenylsulfonyl)pyrrolidine-2-carboxamido)-3-(4-(3,5-dichloroisonicotinamido)phenyl)propanoic acid competitive binding assay; format: functional, Macaca mulatta
[23] = Half life in dog at 0.75 mg/kg, iv; format: ADME, organism-based, Canis lupus familiaris; design: dose 0.75 mg/kg, route intravenous; details: in vivo
[24] = Plasma Clearance in rat at 0.5 mg/kg, iv; format: ADME, organism-based; design: dose 0.5 mg/kg, route intravenous
[25] = Half life in rhesus monkey at 0.75 mg/kg, iv; format: ADME, organism-based, Macaca mulatta; design: dose 0.75 mg/kg, route intravenous; details: in vivo
Rattus norvegicus [26] = experiment: Tmin in rat at 0.5 mg/kg, iv; format: ADME, organism-based; design: dose 0.5 mg/kg, route intravenous; details: in vivo
[27] = Half life in rat at 0.5 mg/kg, iv; format: ADME, organism-based; design: dose 0.5 mg/kg, route intravenous; details: in vivo
[28] = Plasma Clearance in rhesus monkey at 0.75 mg/kg, iv; format: ADME, organism-based, Macaca mulatta; design: dose 0.75 mg/kg, route intravenous
Rhesus monkey [29] = experiment: Tmin in rhesus monkey at 0.75 mg/kg, iv; format: ADME, organism-based, Macaca mulatta; design: dose 0.75 mg/kg, route intravenous; details: in vivo
Canis familiaris [30] = experiment: Tmin in dog at 0.75 mg/kg, iv; format: ADME, organism-based, Canis lupus familiaris; design: dose 0.75 mg/kg, route intravenous; details: in vivo
Rattus norvegicus [31] = experiment: Ex vivo receptor occupancy at VLA4 in rat at 0.5 mg/kg, iv after 8 hrs by [125I]- -(S)-2-((2S,4R)-4-(azetidin-1-yl)-1-(3-iodophenylsulfonyl)pyrrolidine-2-carboxamido)-3-(4-(3,5-dichloroisonicotinamido)phenyl)propanoic acid competitive binding assay; format: functional
[32] = Plasma Clearance in dog at 0.75 mg/kg, iv; format: ADME, organism-based, Canis lupus familiaris; design: dose 0.75 mg/kg, route intravenous
Canis familiaris [33] = experiment: Ex vivo receptor occupancy at VLA4 in dog at 0.75 mg/kg, iv after 8 hrs by [125I]- -(S)-2-((2S,4R)-4-(azetidin-1-yl)-1-(3-iodophenylsulfonyl)pyrrolidine-2-carboxamido)-3-(4-(3,5-dichloroisonicotinamido)phenyl)propanoic acid competitive binding assay; format: functional, Canis lupus familiaris

O=C(Nc1ccc(C[C@H](NC(=O)[C@@H]2C[C@@H](NC3CCC3)CN2S(=O)(=O)c2cc(Cl)cc(Cl)c2)C(=O)O)cc1)c1c(Cl)cncc1Cl
IC50 (Integrin alpha-4 [1]): 0.1 nM
Activity [2]: 82%
IC50 (Integrin alpha-4 [3]): 0.1 nM

N[C@@H]1C[C@@H](C(=O)N[C@@H](Cc2ccc(NC(=O)c3c(Cl)cncc3Cl)cc2)C(=O)O)N(S(=O)(=O)c2cc(Cl)cc(Cl)c2)C1
IC50 (Integrin alpha-4 [1]): 0.09 nM
Activity [4]: 47%
IC50 (Integrin alpha-4 [3]): 0.4 nM

N#Cc1cccc(S(=O)(=O)N2C[C@H](NC3CCC3)C[C@H]2C(=O)N[C@@H](Cc2ccc(NC(=O)c3c(Cl)cncc3Cl)cc2)C(=O)O)c1
Stability (Liver microsomes [5]): 56 pmol/mg
IC90 [6]: 0.13 nM
Tmin (Rattus norvegicus [7]): 0 h
half-life [8]: 0.5 h
IC90 (Canis lupus familiaris): 0.19 nM
Stability (Liver microsomes [9]): 39 pmol/mg
Activity (Rhesus monkey [10]): 88%
Activity [2]: 64%
Activity (Rattus norvegicus [11]): 67%
half-life [12]: 1 h
Tmin (Rhesus monkey [13]): 0 h
CL/F [14]: 1.74 L/h/kg
CL/F [15]: 3.9 L/h/kg
CL/F [16]: 1.98 L/h/kg
Activity (Canis familiaris [17]): 83%
half-life [18]: 1.1 h
Tmin (Canis familiaris [19]): 6 h
IC90 (Rattus norvegicus [20]): 0.4 nM
IC90 (Macaca mulatta): 0.21 nM

C[C@@]1(C(=O)N[C@@H](Cc2ccc(NC(=O)c3c(Cl)cncc3Cl)cc2)C(=O)O)CCCN1S(=O)(=O)c1cc(Cl)cc(Cl)c1
IC50 (Integrin alpha-4 [1]): 0.11 nM
IC50 (Integrin alpha-4 [3]): 49 nM

O=C(Nc1ccc(C[C@H](NC(=O)[C@@H]2C[C@@H](N3CCCC3)CN2S(=O)(=O)c2cc(Cl)cc(Cl)c2)C(=O)O)cc1)c1c(Cl)cncc1Cl
IC50 (Integrin alpha-4 [1]): 0.1 nM
Activity [2]: 82%
IC50 (Integrin alpha-4 [3]): 0.2 nM

CCOC(=O)[C@H](Cc1ccc(NC(=O)c2c(Cl)cncc2Cl)cc1)NC(=O)[C@@H]1C[C@@H](NC2CCC2)CN1S(=O)(=O)c1cccc(C#N)c1
IC50 (Cytochrome P450 3A4): 1700 nM
Tmin (Rattus norvegicus [7]): 0 h
Activity (Rhesus monkey [10]): 95%
Activity (Rattus norvegicus [11]): 77%
Tmin (Rhesus monkey [13]): 0 h
Activity (Canis familiaris [17]): 97%
Tmin (Canis familiaris [19]): 12 h

CCOC(=O)[C@H](Cc1ccc(NC(=O)c2c(Cl)cncc2Cl)cc1)NC(=O)[C@@H]1C[C@@H](NC2CCC2)CN1S(=O)(=O)c1cc(Cl)cc(Cl)c1
IC50 (Cytochrome P450 3A4): < 400 nM
Activity (Rattus norvegicus [21]): 51%

O=C(Nc1ccc(C[C@H](NC(=O)[C@@H]2C[C@@H](N3CCC3)CN2S(=O)(=O)c2cc(Cl)cc(Cl)c2)C(=O)O)cc1)c1c(Cl)cncc1Cl
Activity (Rhesus monkey [22]): 87%
half-life [23]: 0.5 h
clearance [24]: 3.9 L/h/kg
half-life [25]: 1.1 h
IC50 (Integrin alpha-4 [1]): 0.08 nM
Activity (Rattus norvegicus [21]): 46%
Tmin (Rattus norvegicus [26]): 2 h
Activity [2]: 77%
half-life [27]: 1 h
clearance [28]: 1.98 L/h/kg
Tmin (Rhesus monkey [29]): 6 h
Tmin (Canis familiaris [30]): 1 h
Activity (Rattus norvegicus [31]): 64%
clearance [32]: 1.74 L/h/kg
IC50 (Integrin alpha-4 [3]): 0.2 nM
Activity (Canis familiaris [33]): 72%

CCOC(=O)[C@H](Cc1ccc(NC(=O)c2c(Cl)cncc2Cl)cc1)NC(=O)[C@@H]1C[C@@H](N2CCC2)CN1S(=O)(=O)c1cc(Cl)cc(Cl)c1
Activity (Rattus norvegicus [21]): 62%

O=C(Nc1ccc(C[C@H](NC(=O)[C@@H]2C[C@@H](N3CCCCC3)CN2S(=O)(=O)c2cc(Cl)cc(Cl)c2)C(=O)O)cc1)c1c(Cl)cncc1Cl
IC50 (Integrin alpha-4 [1]): 0.09 nM
Activity [2]: 89%
IC50 (Integrin alpha-4 [3]): 0.3 nM

O=C(Nc1ccc(C[C@H](NC(=O)[C@@H]2CCCN2S(=O)(=O)c2cc(Cl)cc(Cl)c2)C(=O)O)cc1)c1c(Cl)cncc1Cl
IC50 (Integrin alpha-4 [1]): 0.07 nM
Activity [4]: 62%
IC50 (Integrin alpha-4 [3]): 1.5 nM

O=C(Nc1ccc(C[C@H](NC(=O)[C@@H]2C[C@H](N3CCC3)CN2S(=O)(=O)c2cc(Cl)cc(Cl)c2)C(=O)O)cc1)c1c(Cl)cncc1Cl
IC50 (Integrin alpha-4 [1]): 0.2 nM
Activity [4]: 15%
